# Legend:
# late watergrass = assay: Test Example 1: herbicidal activity, application before weed generation under submerged conditions (Table 16, symbol A); assay type: in vivo, late watergrass (Echinochloa oryzicola); conditions: 320 g/ha applied herbicide
# In short: (§1)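 Alluvial soil was flooded to 4 cm depth, weed seeds were sown mixed and 2.5-leaf rice seedlings were transplanted. On sowing day, the compound's emulsion, diluted in water to a set dose, was applied to the water surface. Plants grew at 25–30 °C and were scored 0–5 after three weeks.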
# velvetleaf [1] = assay: Test Example 4: herbicidal effect by soil treatment (Table 19, symbol M); assay type: in vivo, velvetleaf (Abutilon theophrasti); conditions: amount of applied herbicide 320 g/ha
# In short: (§2)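 Scoring uses the grading scale of an earlier test, three weeks post-application. Treatment consists of spraying a diluted emulsion formulation across the surface of sterilized diluvial soil in which seeds are buried near 1.5 cm deep; boxes are kept in a greenhouse between 25° C. and 30° C.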
# chickweed = assay: Test Example 5: herbicidal effect by foliage application, plastic box (Table 20, symbol P); assay type: in vivo, common chickweed (Stellaria media); conditions: foliage application, 320 g/ha, three weeks after application
# In short: (§3)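 Post-emergence foliar test in sterilized diluvial soil. Compound applied as water-diluted emulsion at a predetermined rate to 14-day-old plants; evaluation at three weeks.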
# windgrass = assay: Test Example 5: herbicidal effect by foliage application, plastic box (Table 20, symbol L); assay type: in vivo, windgrass (Apera spica-venti); conditions: foliage application, 320 g/ha, three weeks after application
# In short: as §3
# redroot pigweed [2] = assay: Test Example 5: herbicidal effect by foliage application, plastic box (Table 20, symbol N); assay type: in vivo, redroot pigweed (Amaranthus retroflexus); conditions: foliage application, 320 g/ha, three weeks after application
# In short: as §3
# barnyard grass [3] = assay: Test Example 5: herbicidal effect by foliage application, plastic box (Table 20, symbol H); assay type: in vivo, barnyard grass (Echinochloa crus-galli); conditions: foliage application, 320 g/ha, three weeks after application
# In short: as §3
# green foxtail [4] = assay: Test Example 5: herbicidal effect by foliage application, plastic box (Table 20, symbol G); assay type: in vivo, green foxtail (Setaria viridis); conditions: foliage application, 320 g/ha, three weeks after application
# In short: as §3
# Italian ryegrass [5] = assay: Test Example 5: herbicidal effect by foliage application, plastic box (Table 20, symbol K); assay type: in vivo, Italian ryegrass (Lolium multiflorum); conditions: foliage application, 320 g/ha, three weeks after application
# In short: as §3
# Japanese bulrush [6] = assay: Test Example 1: herbicidal activity, application before weed generation under submerged conditions (Table 16, symbol B); assay type: in vivo, Japanese bulrush (Schoenoplectus juncoides); conditions: 320 g/ha applied herbicide
# In short: as §1
# Italian ryegrass [7] = assay: Test Example 4: herbicidal effect by soil treatment (Table 19, symbol K); assay type: in vivo, Italian ryegrass (Lolium multiflorum); conditions: amount of applied herbicide 320 g/ha
# In short: as §2
# barnyard grass [8] = assay: Test Example 4: herbicidal effect by soil treatment (Table 19, symbol H); assay type: in vivo, barnyard grass (Echinochloa crus-galli); conditions: amount of applied herbicide 320 g/ha
# In short: as §2
# oval-leafed pondweed [9] = assay: Test Example 2: herbicidal activity, application during weed generation under submerged conditions (Table 17, symbol C); assay type: in vivo, oval-leafed pondweed (Monochoria vaginalis); conditions: AAH 320 g/ha; application during weed generation, submerged conditions
# Description: (§4) [Test Example 2] Herbicidal Activity Test by Application during Weed Generation under Submerged Conditions After alluvial soil was placed into 1/10000 are of Wagner pot, water was poured and mixed to form a submerged condition having a water depth of 4 cm. Seeds of late watergrass, Japanese bulrush, and oval-leafed pondweed were sowed in a mixed manner in the aforementioned pot, and the pot was placed in a greenhouse at 25° C. to 30° C. for growth of the plants. When late watergrass, Japanese bulrush, and oval-leafed pondweed were grown to one leaf stage to two leaf stage, the emulsion agent of the compound of the present invention prepared according to Formulation Example 2 was diluted with water so as to achieve a predetermined herbicide amount, and the diluted emulsion agent was applied to the surface of the water. Three weeks after the herbicide application, the effect of the herbicide on each plant was evaluated according to the criteria of Test Example 1.
# wild oat [10] = assay: Test Example 4: herbicidal effect by soil treatment (Table 19, symbol I); assay type: in vivo, wild oat (Avena fatua); conditions: amount of applied herbicide 320 g/ha
# In short: as §2
# persian speedwell = assay: Test Example 5: herbicidal effect by foliage application, plastic box (Table 20, symbol R); assay type: in vivo, Persian speedwell (Veronica persica); conditions: foliage application, 320 g/ha, three weeks after application
# In short: as §3
# rice flat sedge = assay: Test Example 3: herbicidal effect by foliage application, Wagner pot (Table 18, symbol E); assay type: in vivo, rice flat sedge (Cyperus iria); conditions: 320 g/ha
# In short: (§5)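 Plants were sown in alluvial soil held under 0.1–0.5 cm standing water and grown 14 days in a greenhouse at 25–30 °C. An emulsifiable formulation, water-diluted to the set dose, was then sprayed onto the foliage, and effects were scored three weeks later using previously defined criteria.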
# lambsquarters = assay: Test Example 5: herbicidal effect by foliage application, plastic box (Table 20, symbol O); assay type: in vivo, lambsquarters (Chenopodium album); conditions: foliage application, 320 g/ha, three weeks after application
# In short: as §3
# southern crabgrass [11] = assay: Test Example 5: herbicidal effect by foliage application, plastic box (Table 20, symbol F); assay type: in vivo, southern crabgrass (Digitaria ciliaris); conditions: foliage application, 320 g/ha, three weeks after application
# In short: as §3
# wild oat [12] = assay: Test Example 5: herbicidal effect by foliage application, plastic box (Table 20, symbol I); assay type: in vivo, wild oat (Avena fatua); conditions: foliage application, 320 g/ha, three weeks after application
# In short: as §3
# barnyard grass [13] = assay: Test Example 3: herbicidal effect by foliage application, Wagner pot (Table 18, symbol H); assay type: in vivo, barnyard grass (Echinochloa crus-galli); conditions: 320 g/ha
# In short: as §5
# blackgrass [14] = assay: Test Example 4: herbicidal effect by soil treatment (Table 19, symbol J); assay type: in vivo, blackgrass (Alopecurus myosuroides); conditions: amount of applied herbicide 320 g/ha
# In short: as §2
# oval-leafed pondweed [15] = assay: Test Example 1: herbicidal activity, application before weed generation under submerged conditions (Table 16, symbol C); assay type: in vivo, oval-leafed pondweed (Monochoria vaginalis); conditions: 320 g/ha applied herbicide
# In short: as §1
# blackgrass [16] = assay: Test Example 5: herbicidal effect by foliage application, plastic box (Table 20, symbol J); assay type: in vivo, blackgrass (Alopecurus myosuroides); conditions: foliage application, 320 g/ha, three weeks after application
# In short: as §3
# redroot pigweed [17] = assay: Test Example 4: herbicidal effect by soil treatment (Table 19, symbol N); assay type: in vivo, redroot pigweed (Amaranthus retroflexus); conditions: amount of applied herbicide 320 g/ha
# In short: as §2
# velvetleaf [18] = assay: Test Example 5: herbicidal effect by foliage application, plastic box (Table 20, symbol M); assay type: in vivo, velvetleaf (Abutilon theophrasti); conditions: foliage application, 320 g/ha, three weeks after application
# In short: as §3
# green foxtail [19] = assay: Test Example 4: herbicidal effect by soil treatment (Table 19, symbol G); assay type: in vivo, green foxtail (Setaria viridis); conditions: amount of applied herbicide 320 g/ha
# In short: as §2
# southern crabgrass [20] = assay: Test Example 4: herbicidal effect by soil treatment (Table 19, symbol F); assay type: in vivo, southern crabgrass (Digitaria ciliaris); conditions: amount of applied herbicide 320 g/ha
# In short: as §2
# Chinese sprangletop = assay: Test Example 3: herbicidal effect by foliage application, Wagner pot (Table 18, symbol D); assay type: in vivo, chinese sprangletop (Leptochloa chinensis); conditions: 320 g/ha
# In short: as §5
# Japanese bulrush [21] = assay: Test Example 2: herbicidal activity, application during weed generation under submerged conditions (Table 17, symbol B); assay type: in vivo, Japanese bulrush (Schoenoplectus juncoides); conditions: AAH 320 g/ha; application during weed generation, submerged conditions
# Description: as §4
compound,measurement,setting,value
CCOc1ccc(-c2sc3ccccc3c2-c2c(O)c(C)nn(C)c2=O)cc1 [1-013],Herbicidal effect on A: late watergrass (grade 0-5),late watergrass,4 (Herbicidal rate of 70% or more and less than 90%)
same,"herbicidal effect rating, M: velvetleaf",velvetleaf [1],0 (Herbicidal rate of 5% or less (almost no effect))
same,"herbicidal effect grade, P: chickweed",chickweed,5 (Herbicidal rate of 90% or more (almost completely withered))
same,"herbicidal effect grade, L: windgrass",windgrass,0 (Herbicidal rate of 5% or less (almost no effect))
same,"herbicidal effect grade, N: redroot pigweed",redroot pigweed [2],3 (Herbicidal rate of 40% or more and less than 70%)
same,"herbicidal effect grade, H: barnyard grass",barnyard grass [3],4 (Herbicidal rate of 70% or more and less than 90%)
same,"herbicidal effect grade, G: green foxtail",green foxtail [4],5 (Herbicidal rate of 90% or more (almost completely withered))
same,"herbicidal effect grade, K: Italian ryegrass",Italian ryegrass [5],3 (Herbicidal rate of 40% or more and less than 70%)
same,Herbicidal effect on B: Japanese bulrush (grade 0-5),Japanese bulrush [6],4 (Herbicidal rate of 70% or more and less than 90%)
same,"herbicidal effect rating, K: Italian ryegrass",Italian ryegrass [7],0 (Herbicidal rate of 5% or less (almost no effect))
same,"herbicidal effect rating, H: barnyard grass",barnyard grass [8],4 (Herbicidal rate of 70% or more and less than 90%)
same,"herbicidal effect rating, C: oval-leafed pondweed",oval-leafed pondweed [9],3 (Herbicidal rate of 40% or more and less than 70%)
same,"herbicidal effect rating, I: wild oat",wild oat [10],0 (Herbicidal rate of 5% or less (almost no effect))
same,"herbicidal effect grade, R: persian speedwell",persian speedwell,5 (Herbicidal rate of 90% or more (almost completely withered))
same,"herbicidal effect on E (rice flat sedge), rating 0-5",rice flat sedge,5 (Herbicidal rate of 90% or more (almost completely withered))
same,"herbicidal effect grade, O: lambsquarters",lambsquarters,3 (Herbicidal rate of 40% or more and less than 70%)
same,"herbicidal effect grade, F: southern crabgrass",southern crabgrass [11],0 (Herbicidal rate of 5% or less (almost no effect))
same,"herbicidal effect grade, I: wild oat",wild oat [12],0 (Herbicidal rate of 5% or less (almost no effect))
same,"herbicidal effect on H (barnyard grass), rating 0-5",barnyard grass [13],5 (Herbicidal rate of 90% or more (almost completely withered))
same,"herbicidal effect rating, J: blackgrass",blackgrass [14],0 (Herbicidal rate of 5% or less (almost no effect))
same,Herbicidal effect on C: oval-leafed pondweed (grade 0-5),oval-leafed pondweed [15],3 (Herbicidal rate of 40% or more and less than 70%)
same,"herbicidal effect grade, J: blackgrass",blackgrass [16],0 (Herbicidal rate of 5% or less (almost no effect))
same,"herbicidal effect rating, N: redroot pigweed",redroot pigweed [17],3 (Herbicidal rate of 40% or more and less than 70%)
same,"herbicidal effect grade, M: velvetleaf",velvetleaf [18],5 (Herbicidal rate of 90% or more (almost completely withered))
same,"herbicidal effect rating, G: green foxtail",green foxtail [19],5 (Herbicidal rate of 90% or more (almost completely withered))
same,"herbicidal effect rating, F: southern crabgrass",southern crabgrass [20],0 (Herbicidal rate of 5% or less (almost no effect))
same,"herbicidal effect on D (Chinese sprangletop), rating 0-5",Chinese sprangletop,1 (Herbicidal rate of 5% or more and less than 20%)
same,"herbicidal effect rating, B: Japanese bulrush",Japanese bulrush [21],3 (Herbicidal rate of 40% or more and less than 70%)

# From patent US20230085307A1, “PYRIDAZINONE COMPOUND AND HERBICIDE” (NISSAN CHEMICAL CORPORATION, priority 2019, published 2023)
